According to ChEMBL document CHEMBL1240438, “Identification of potent virtual leads to design novel indoleamine 2,3-dioxygenase inhibitors: pharmacophore modeling and molecular docking studies” (Eur J Med Chem, 2010):
pIC50: −log10 of the molar value.

Biological target: Indoleamine 2,3-dioxygenase 1 (Homo sapiens, UniProt P14902)
Assay: Inhibition of 2,3 dioxygenase

Chain of Indoleamine 2,3-dioxygenase 1 (P14902 whole entry): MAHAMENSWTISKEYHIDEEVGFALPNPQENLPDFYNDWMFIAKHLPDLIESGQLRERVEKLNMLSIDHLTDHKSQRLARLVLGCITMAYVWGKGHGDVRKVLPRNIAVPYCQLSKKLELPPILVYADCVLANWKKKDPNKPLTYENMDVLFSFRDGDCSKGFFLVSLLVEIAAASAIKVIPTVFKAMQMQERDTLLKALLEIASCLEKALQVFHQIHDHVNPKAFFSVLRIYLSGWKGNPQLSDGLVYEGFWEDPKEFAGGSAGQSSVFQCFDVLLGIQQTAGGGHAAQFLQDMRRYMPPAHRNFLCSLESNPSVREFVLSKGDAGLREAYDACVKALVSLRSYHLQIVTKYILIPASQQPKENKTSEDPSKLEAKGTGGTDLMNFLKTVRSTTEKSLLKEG

Compound	pIC50
CC1(C)OC2=C(C(=O)c3ccccc3C2=O)C2OC21 (centres undefined)	5.31
CC1=C(SCC(NC(=O)CCC(N)C(=O)O)C(=O)NCC(=O)O)C(=O)c2c(O)cccc2C1=O (centres undefined)	6.06
CCCCNC1C2=C(OC(C)(C)C1O)C(=O)c1ccccc1C2=O (centres undefined)	6.89
CC1(C)C=CC2=C(O1)C(=O)c1cc(O)ccc1C2=O	5.70
